{"source": "patent US20240109937A1", "about": "“BINDING PEPTIDES AND USES THEREOF” (The Johns Hopkins University, priority 2021, published 2024)", "assay_type_in_all_cases": "cell-based, mouse", "key": {"[1]": {"system": "cleaved (75 kDa) CAPN1", "experiment": "Immunoblot of active CAPN1 in ISO/Ca2+-treated ES-CMs (chronic CAPN1 inhibition)", "conditions": "Dsg2^mut/mut ES-CMs, 7 days 50 μM ISO/1 μM Ca2+, calpeptin pretreatment", "protocol": "(§1) Mouse embryonic stem cells (ESs) were maintained and differentiated, and the absence of mycoplasma contamination was confirmed prior to experimental studies. Briefly, mouse ESs from both WT and Dsg2^mut/mut mice were derived from E3.5 embryos and maintained on gelatin-coated dishes in maintenance medium (Glasgow minimum essential medium supplemented with 10% fetal bovine serum and 3 μM Chir99021 and 1 μM PD98059 or 1000 U/ml ESGRO; Millipore), Glutamax, sodium pyruvate, and MEM non-essential amino acids (Thermo Fisher Scientific). For cardiomyocyte (CM) differentiation, ESs were plated in IMDM/Ham's F12 (Cellgro, at 3:1) supplemented with N2, B27, penicillin/streptomycin, 2 mM GlutaMAX, 0.05% BSA, 5 ng/ml L-ascorbic acid (Sigma-Aldrich), and α-monothioglycerol (MTG; Sigma-Aldrich) at a final density of 100,000 cells/ml to allow spheroid formation. After 48 hours, embryoid bodies were collected and transferred to ultra-low attachment plastic surface and induced for 40 hours with Activin A and Bmp4 (R&D Systems). Cells were then dissociated and plated as monolayers for 48 hours in the presence of 10 μM XAV to allow cardiomyocyte differentiation. The resulting ES-CMs were cultured 45 days before experimental procedures were performed."}, "[2]": {"system": "HL-1 cells", "experiment": "Intracellular Ca2+ (Fluo4 FF fluorescence) in HL-1 cells", "conditions": "Calcimycin 1 μM in HBS KV medium", "protocol": "Calcium (Ca^2+) Overload Protocol: Rapid and sustained intracellular Ca^2+ overload was obtained by adding the Ca^2+-ionophore, calcimycin (1 μM), to HL-1 cells incubated for 10 min in HBS KV medium (1.26 mM CaCl2, 0.81 mM MgSO4, 0.44 mM KH2PO4, 142 mM KCl, 0.27 mM K2HPO4, 5.55 mM D-glucose, 1 mM Na3VO4, 20 mM Hepes pH 7.4). To monitor intracellular Ca^2+ variations, HL-1 cells were loaded with 5 μM Fluo-4 FF AM (Molecular Probes) in HBS Na (Sigma) for 30 min before the media was replaced with HBS KV."}, "[3]": {"system": "truncated AIF (tAIF, 57 kDa)", "experiment": "Immunoblot of truncated AIF in ISO/Ca2+-treated ES-CMs (chronic CAPN1 inhibition)", "conditions": "Dsg2^mut/mut ES-CMs, 7 days 50 μM ISO/1 μM Ca2+, calpeptin pretreatment", "protocol": "as §1"}, "[4]": {"system": "HL-1 cells", "experiment": "Cell viability assay (LDH release) in HL-1 cells under Ca2+ overload", "conditions": "Calcimycin 1 μM in HBS KV medium, dose-dependent response", "protocol": "Calcium (Ca^2+) Overload Protocol: Rapid and sustained intracellular Ca^2+ overload was obtained by adding the Ca^2+-ionophore, calcimycin (1 μM), to HL-1 cells incubated for 10 min in HBS KV medium (1.26 mM CaCl2, 0.81 mM MgSO4, 0.44 mM KH2PO4, 142 mM KCl, 0.27 mM K2HPO4, 5.55 mM D-glucose, 1 mM Na3VO4, 20 mM Hepes pH 7.4). To monitor intracellular Ca^2+ variations, HL-1 cells were loaded with 5 μM Fluo-4 FF AM (Molecular Probes) in HBS Na (Sigma) for 30 min before the media was replaced with HBS KV. […] Cell Viability Assay: HL-1 plasma membrane integrity was assessed by measuring lactate dehydrogenase (LDH) release in the culture supernatant. An enzymatic assay evaluated LDH activity. Samples of the cell-free culture supernatant were collected at indicated times in Figures/Figure Legends, while cells were lysed in 1% (w/v) Triton X-100 at the end of each experiment to estimate the remaining cellular content of LDH. The LDH activity at each time point was expressed as a percentage of total LDH activity."}}}
{"smiles": "CCCC[C@@H](C=O)NC(=O)[C@H](CC(C)C)NC(=O)OCc1ccccc1", "note": "[calpeptin]", "values": [{"measurement": "levels of cleaved (75 kDa) CAPN1", "setting": "[1]", "value": "significantly lowered"}, {"measurement": "kinetics of cytosolic Ca2+ accumulation", "setting": "[2]", "value": "neither of them had an impact"}, {"measurement": "levels of tAIF (57 kDa)", "setting": "[3]", "value": "significantly lowered"}, {"measurement": "reduction in cell death (LDH release)", "setting": "[4]", "value": "~40", "unit": "%"}]}
